# Test results reported in patent US20040097421A1 (priority 2000, published 2004).
# Structures can show the parent of a compound that is named as a salt.
# Key:
# [1] = test system: Breast cancer tumor cell system; assay: Cytotoxic activity in different tumor models, breast cancer; type: cell-based, human; conditions: Number 4
# [2] = test system: 27 PHTC samples from 9 patients with hematological and 18 patients with solid tumours; assay: Circumvention of melphalan resistance, FMCA classification of PHTC samples; type: cell-based, human; conditions: 4 μM
# [3] = test system: fresh human tumour specimens (fourteen hematological, thirteen solid); assay: FMCA, IC50 comparison in 27 fresh human tumour specimens; type: cell-based; conditions: 27 human tumour samples, 82 to 0.131 μM
# RPMI 8322 melanoma cells = conditions: cited from earlier work
# [4] = test system: hematological tumors, primary cultures of human tumor cells from patients (PHTC); type: cell-based
# [5] = test system: Corpus cancer tumor cell system; assay: Cytotoxic activity in different tumor models, corpus cancer; type: cell-based, human; conditions: Number 4
# [6] = test system: NSC Lung cancer tumor cell system; assay: Cytotoxic activity in different tumor models, NSC lung cancer; type: cell-based, human; conditions: Number 8
# [7] = test system: Prostate cancer tumor cell system; assay: Cytotoxic activity in different tumor models, prostate cancer; type: cell-based, human; conditions: Number 1
# [8] = test system: solid tumour types, cell lines and primary cultures of human tumour cells from patients; assay: Tumour type specific spectrum of antitumour activity, solid tumour types; type: cell-based; conditions: 4.0 μM
# [9] = test system: Adenocarcinoma tumor cell system; assay: Cytotoxic activity in different tumor models, adenocarcinoma; type: cell-based, human; conditions: Number 5
# [10] = test system: U937vcr (vincristine resistance subline); type: cell-based, human
# [11] = test system: Ovarian carcinoma tumor cell system; assay: Cytotoxic activity in different tumor models, ovarian carcinoma; type: cell-based, human; conditions: Number 8
# [12] = test system: panel of ten human tumour cell lines; type: cell-based
# [13] = test system: U-1568 (non-small cell lung cancer); assay: cells; type: cell-based; conditions: Homo sapiens, read-out: IC50 (μM), U-1568
# [14] = test system: U1906L (small cell lung cancer); assay: cells; type: cell-based; conditions: Homo sapiens, read-out: IC50 (μM), U1906L
# [15] = test system: NCI-H125 (non-small cell lung cancer); assay: cells; type: cell-based; conditions: Homo sapiens, NCI-H125, read-out: IC50 (μM), NCI-H125
# [16] = test system: 8226S (myeloma RPMI 8226); assay: cells; type: cell-based, human; conditions: Homo sapiens, RPMI-8226, 72 h, read-out: IC50 (μM), 8226S
# [17] = test system: U1690 (small cell lung cancer); assay: cells; type: cell-based; conditions: Homo sapiens, read-out: IC50 (μM), U1690
# [18] = test system: NCI-H611 (non-small cell lung cancer); assay: cells; type: cell-based; conditions: Homo sapiens, read-out: IC50 (μM), NCI-H611
# [19] = test system: U-1906E (small cell lung cancer); assay: cells; type: cell-based; conditions: Homo sapiens, read-out: IC50 (μM), U-1906E
# [20] = test system: CEM/S (leukemia CCRF-CEM); assay: cells; type: cell-based; conditions: Homo sapiens, 72 h, read-out: IC50 (μM), CEM/S
# [21] = test system: U1285 (small cell lung cancer); assay: cells; type: cell-based; conditions: Homo sapiens, read-out: IC50 (μM), U1285
# [22] = test system: U-1752 (non-small cell lung cancer); assay: cells; type: cell-based; conditions: Homo sapiens, read-out: IC50 (μM), U-1752
smiles,measurement,setting,value
"CCOC(=O)[C@H](Cc1ccc(F)cc1)NC(=O)[C@H](Cc1cccc(N(CCCl)CCCl)c1)NC(=O)[C@@H]1CCCN1 [Example P2, L-prolyl-m-L-sarcolysyl-p-L-fluorophenylalanine ethyl ester hydrochloride]",Median response at 4.0 μM >50% reduction in tumor cell survival,[1],No
same,Number of samples classified EDR (extreme drug resistance),[2],1
same,Number of samples classified IDR (intermediate drug resistance),[2],4
same,Samples classified EDR (%),[2],5%
same,Comparison of IC50s (FIG. 2),[3],more active than melphalan
same,Toxicity to RPMI 8322 melanoma cells compared with the other PTC peptides,RPMI 8322 melanoma cells,more toxic
same,"Tumor cell survival index (%), Hematological tumors n = 7-11",[4],7%
same,Median response at 4.0 μM >50% reduction in tumor cell survival,[5],No
same,Median response at 4.0 μM >50% reduction in tumor cell survival,[6],No
same,Median response at 4.0 μM >50% reduction in tumor cell survival,[7],No
same,Activity in the listed diagnoses of Table 5,[8],inactive
same,Median response at 4.0 μM >50% reduction in tumor cell survival,[9],No
same,IC50,[10],1.77 µM
same,Median response at 4.0 μM >50% reduction in tumor cell survival,[11],No
"CC[C@@]1(O)C(=O)OCc2c1cc1n(c2=O)Cc2cc3c(CN(C)C)c(O)ccc3nc2-1 [Topotecan, topotecan]","IC50 (μM), MEAN",[12],20.0 µM
same,IC50,[13],115 µM
same,IC50,[14],0.12 µM
same,IC50,[15],≥ 236 µM
same,IC50,[16],0.87 µM
same,IC50,[17],0.92 µM
same,IC50,[18],≥ 236 µM
same,IC50,[19],0.08 µM
same,IC50,[20],0.02 µM
same,IC50,[21],0.17 µM
same,IC50,[22],28 µM
